The results in this text go back to BindingDB's records for doi:10.1016/s0960-894x(01)00080-4 (Novartis Pharma Research, 2001).

Chain of Epidermal growth factor receptor (Homo sapiens) (P00533 whole entry, looked up): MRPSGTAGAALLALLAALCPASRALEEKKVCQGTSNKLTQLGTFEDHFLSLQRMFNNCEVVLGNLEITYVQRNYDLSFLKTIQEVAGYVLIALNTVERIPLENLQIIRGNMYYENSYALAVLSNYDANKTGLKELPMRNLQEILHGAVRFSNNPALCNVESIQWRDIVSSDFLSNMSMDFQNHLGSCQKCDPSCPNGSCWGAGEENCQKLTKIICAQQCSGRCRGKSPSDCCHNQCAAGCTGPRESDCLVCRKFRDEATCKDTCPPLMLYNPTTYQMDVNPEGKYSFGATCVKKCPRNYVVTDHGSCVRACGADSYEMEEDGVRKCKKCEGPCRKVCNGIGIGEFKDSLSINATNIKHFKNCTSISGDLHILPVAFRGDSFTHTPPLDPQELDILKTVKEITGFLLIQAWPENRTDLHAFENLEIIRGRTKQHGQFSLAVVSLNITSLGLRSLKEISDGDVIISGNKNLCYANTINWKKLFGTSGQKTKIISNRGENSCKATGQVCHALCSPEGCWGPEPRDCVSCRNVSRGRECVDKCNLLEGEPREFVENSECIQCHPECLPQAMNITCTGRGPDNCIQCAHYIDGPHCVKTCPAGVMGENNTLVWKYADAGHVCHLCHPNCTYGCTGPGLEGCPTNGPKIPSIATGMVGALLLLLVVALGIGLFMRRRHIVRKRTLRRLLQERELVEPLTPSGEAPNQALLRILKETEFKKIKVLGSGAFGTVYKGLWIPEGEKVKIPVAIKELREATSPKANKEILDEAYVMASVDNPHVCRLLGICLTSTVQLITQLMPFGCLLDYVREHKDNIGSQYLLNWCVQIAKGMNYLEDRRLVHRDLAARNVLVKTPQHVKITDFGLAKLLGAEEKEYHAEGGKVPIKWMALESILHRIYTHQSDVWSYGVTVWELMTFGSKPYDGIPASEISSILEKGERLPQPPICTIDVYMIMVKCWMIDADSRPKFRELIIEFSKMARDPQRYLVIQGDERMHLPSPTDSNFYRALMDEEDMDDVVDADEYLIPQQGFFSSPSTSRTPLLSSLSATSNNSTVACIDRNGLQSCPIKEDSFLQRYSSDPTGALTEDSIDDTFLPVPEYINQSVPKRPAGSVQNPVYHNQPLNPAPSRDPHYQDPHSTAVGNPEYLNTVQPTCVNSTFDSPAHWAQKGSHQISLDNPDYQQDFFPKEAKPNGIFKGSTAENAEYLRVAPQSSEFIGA

This assay addresses Epidermal growth factor receptor (Homo sapiens) (UniProt P00533). The experiment in a line: Tested for inhibitory activity against Epidermal growth factor receptor.
`COc1cccc(-c2cn(C3CCN(CCN(C)CCO)CC3)c3ncnc(N)c23)c1` [2-((2-(4-(4-amino-5-(3-methoxyphenyl)-7H-pyrrolo[2,3-d]pyrimidin-7-yl)piperidin-1-yl)ethyl)(methyl)amino)ethanol] displayed an IC50 of 340 nM. This lies in the sub-micromolar range.

`COC(=O)CN1CCC(n2cc(-c3cccc(O)c3)c3c(N)ncnc32)CC1` [{4-[4-Amino-5-(3-hydroxy-phenyl)-pyrrolo[2,3-d]pyrimidin-7-yl]-piperidin-1-yl}-acetic acid methyl ester] had an IC50 of 290 nM.

In turn, `CN(C)C(=O)CN1CCC(n2cc(-c3cccc(O)c3)c3c(N)ncnc32)CC1` [2-{4-[4-Amino-5-(3-hydroxy-phenyl)-pyrrolo[2,3-d]pyrimidin-7-yl]-piperidin-1-yl}-N,N-dimethyl-acetamide] gave a 50% inhibitory concentration (IC50) of 400 nM. The IC50 values of the last two compounds are within 1.5-fold of each other.

`Nc1ncnc2c1c(-c1cccc(O)c1)cn2C1CCN(CCO)CC1` [3-(4-amino-7-(1-(2-hydroxyethyl)piperidin-4-yl)-7H-pyrrolo[2,3-d]pyrimidin-5-yl)phenol] showed an IC50 of 360 nM.

The compound `COCCNCCN1CCC(n2cc(-c3cccc(OC)c3)c3c(N)ncnc32)CC1` [7-{1-[2-(2-Methoxy-ethylamino)-ethyl]-piperidin-4-yl}-5-(3-methoxy-phenyl)-7H-pyrrolo[2,3-d]pyrimidin-4-ylamine] registered an IC50 of 620 nM.
